Laboratory results reported in patent US7709014B2, “Hydroxy-oligocarboxylic esters: effects on nerve and use for cutaneous and mucocutaneous organs or sites” (priority 2005, dated 2010).
Structures can show the parent of a compound that is named as a salt.

Legend:
nerves of the lips = assay: Topical application of ester ointment or cream on the lips of human subjects: sensual, sensational, plumping or numbing feelings; type: in vivo; settings: for duration of the feelings of the lips / sensual, sensational or plumping feelings of the lips / time after application until the lips experienced the feelings: 10% in water-non-washable ointment, human; for feelings of the lips: cream or ointment containing 10%, topically applied to lips (general description)
Source text: The mucocutaneous organs or sites include lips, mouth, gum, nostrils, nipples, vulva, vagina, penis and anus.
Ethyl glycolate 10 g was mixed with 90 g ointment prepared from white petrolatum 50 parts, mineral oil 40 parts and white beeswax 10 parts. The composition thus prepared contained 10% ethyl glycolate in a hydrophobic ointment that was not washable with water (a water-non-washable ointment).
A subject, topically applied the above 10% ethyl glycolate ointment on their lips.
L-Ethyl lactate 10 g was mixed with 90 g ointment prepared from white petrolatum 50 parts, mineral oil 40 parts and white beeswax 10 parts. The composition thus prepared contained 10% L-ethyl lactate in water-non-washable ointment. A subject, topically applied the above 10% L-ethyl lactate ointment on their lips.
DL-Diethyl malate 10 g was mixed with 90 g ointment prepared from white petrolatum 50 parts, mineral oil 40 parts and white beeswax 10 parts. The composition thus prepared contained 10% DL-diethyl malate in a water-non-washable ointment.
A subject, topically applied the above 10% DL-diethyl malate ointment on their lips.
D-Diethyl tartarate 10 g was mixed with 90 g ointment prepared from white petrolatum 50 parts, mineral oil 40 parts and white beeswax 10 parts. The composition thus prepared contained 10% D-diethyl tartarate in a water-non-washable ointment.
A subject, topically applied the above 10% D-diethyl tartarate ointment on their lips.
L-Diethyl tartarate 10 g was mixed with 90 g ointment prepared from white petrolatum 50 parts, mineral oil 40 parts and white beeswax 10 parts. The composition thus prepared contained 10% L-diethyl tartarate in a water-non-washable ointment. A subject, topically applied the above 10% L-diethyl tartarate ointment on their lips.
Trimethyl citrate 10 g was mixed with 90 g ointment prepared from white petrolatum 50 parts, mineral oil 40 parts and white beeswax 10 parts. The composition thus prepared contained 10% trimethyl citrate in a water-non-washable ointment.
A subject, topically applied the above 10% trimethyl citrate ointment on their lips.
Lidocaine 5 g was dissolved in warm propylene glycol 20 ml, and the solution thus obtained was mixed with 75 g ointment prepared from white petrolatum 50 parts, mineral oil 40 parts and white beeswax 10 parts. The composition thus prepared contained 5% lidocaine in a water-non-washable ointment.
A subject, topically applied the above 5% lidocaine ointment on their lips.
Tripropyl citrate 10 g was mixed with 90 g ointment prepared from white petrolatum 50 parts, mineral oil 40 parts and white beeswax 10 parts. The composition thus prepared contained 10% tripropyl citrate in a water-non-washable ointment.
A subject, topically applied the above 10% tripropyl citrate ointment on their lips.
Tri-isopropyl citrate 10 g was mixed with 90 g ointment prepared from white petrolatum 50 parts, mineral oil 40 parts and white beeswax 10 parts. The composition thus prepared contained 10% tri-isopropyl citrate in a water-non-washable ointment.
A subject, topically applied the above 10% tri-isopropyl citrate ointment on their lips.

[1] = tested on: itchy and eczematous skin (atopic eczema); assay: Topical application on itching, eczematous skin of a human subject: relief of itch; type: in vivo; settings: for effect on itch associated with eczema or psoriasis / time after topical application until the itch disappears: cream or ointment containing 10%, topically applied to eczematous or psoriatic lesions (general description)
Experimental: A composition comprising a hydroxy-oligocarboxylic ester, preferably a hydroxydicarboxylic ester, and more preferably a hydroxytricarboxylic ester, can also be topically applied to mucocutaneous or skin lesions. For example, a cream or ointment containing 10% tripropyl citrate or tri-isopropyl citrate can be topically applied to eczematous or psoriatic lesions twice daily for 4 to 16 weeks.
Tripropyl citrate 10 g and propylene glycol 20 ml were mixed with hydrophilic ointment or oil-in-water emulsion 70 g. The composition thus prepared contained 10% tripropyl citrate in water-soluble oil-in-water emulsion.
A subject, having atopic eczema with severe itching skin, topically applied the above 10% tripropyl citrate cream on their right leg with itchy eczematous lesions. […]

[2] = tested on: mucocutaneous organs or sites; assay: Topical application to mucocutaneous organs or sites: general findings on sensuous, sensational and mild anesthetic effects; type: in vivo, human; settings: for sensuous or mild anesthetic effect: topical application, same conditions as the hydroxy-oligocarboxylic esters
Source text: The present invention is based on the discovery that topical application of a hydroxy-oligocarboxylic ester, preferably a hydroxydicarboxylic ester or more preferably a hydroxytricarboxylic ester such as tripropyl citrate on topical application can produce sensuous, sensational and mild anesthetic effects on mucocutaneous organs or sites, such as lips, mouth, gum, nostrils, nipples, vulva, vagina, penis and anus. […] The sensuous and sensational effects produced by the hydroxy-oligocarboxylic ester, preferably a hydroxydicarboxylic ester or more preferably a hydroxytricarboxylic ester are quite different from the numbing effects induced by local anesthetics such as lidocaine and procaine. The sensuous, sensational and mild anesthetic effects produced by the hydroxy-oligocarboxylic ester according to the present invention generally last from a few minutes to a few hours. Such nerve-acting sensation or effect has many cosmetic, dental and dermatological applications. For example, a lipstick or lip balm comprising a hydroxy-oligocarboxylic ester, preferably a hydroxydicarboxylic ester or more preferably a hydroxytricarboxylic ester, can provide a sensuous or sensational feeling after topical application to lips of a human subject. Such sensuous action and certain anesthetic effects on nervous system produced by the hydroxy-oligocarboxylic ester can have beneficial applications such as to relieve itch or pain of lips, mouth, gum, nostrils, nipples, vulva, vagina, penis and anus, and for conditions associated with eczema, hemorrhoids, dry or aging-associated changes of the vulva and vagina.

[3] = tested on: itchy and eczematous skin (atopic eczema); assay: Topical application on itching, eczematous skin of a human subject: relief of itch; type: in vivo; settings: 10% in water-non-washable ointment, itching skin of right lower leg, subject with atopic eczema
[4] = 10% cream (water-soluble oil-in-water emulsion with propylene glycol), itchy eczematous lesions of right leg, subject with atopic eczema
[5] = 5% in water-non-washable ointment with propylene glycol, topically applied on lips, subject

Structure (SMILES)	duration of the feelings of the lips (nerves of the lips; topically applied on lips)	sensual, sensational or plumping feelings of the lips (nerves of the lips; topically applied on lips)	time after application until the lips experienced the feelings (nerves of the lips; topically applied on lips)	also measured
CCOC(=O)CC(O)C(=O)OCC (racemic) [DL-diethyl malate, DL-Diethyl malate]	10 to 20 min	sensual and plumping feelings	one to two	
CCOC(=O)[C@H](O)[C@@H](O)C(=O)OCC [L-diethyl tartarate, L-Diethyl tartarate]	10 to 20 min	slight sensual and plumping feelings	one to two	
CCCOC(=O)CC(O)(CC(=O)OCCC)C(=O)OCCC [tripropyl citrate, Tripropyl citrate]	90 to 120 min	sensual and sensational feelings	a few	feelings of the lips (nerves of the lips): sensual and sensational pleasure with very mild anesthetic effects; effect on itch [1, 4]: the itch disappeared completely; time after application until the itch disappeared [1, 4]: a few; time the skin remained free of itch [1, 4]: 4 h; effect on itch associated with eczema or psoriasis [1]: usually disappears; time after topical application until the itch disappears [1]: a few; sensuous and sensational effects compared with trimethyl citrate ([2]; strength and duration, compared with trimethyl citrate): much stronger and longer-lasting sensuous and sensational effects
CCOC(=O)[C@H](C)O [L-ethyl lactate, L-Ethyl lactate, reference compound]		no sensual or sensational feelings during the next 30 minutes		
CCOC(=O)C(C)O (stereo not shown) [ethyl lactate]				sensuous or mild anesthetic effect [2]: does not produce a sensuous or mild anesthetic effect
CC(C)OC(=O)CC(O)(CC(=O)OC(C)C)C(=O)OC(C)C [tri-isopropyl citrate, Tri-isopropyl citrate]	about an hour	sensual and sensational feelings	a few	feelings of the lips (nerves of the lips): sensual and sensational pleasure with very mild anesthetic effects; effect on itch associated with eczema or psoriasis [1]: usually disappears; time after topical application until the itch disappears [1]: a few
CCOC(=O)CC(O)(CC(=O)OCC)C(=O)OCC [triethyl citrate, Triethyl citrate]	20 to 30 min	sensual and plumping feelings	one to two	feelings of the lips (nerves of the lips): sensual and sensational pleasure with very mild anesthetic effects; effect on itch [3]: the itch stopped; time after application until the itch stopped [3]: a few; time the skin remained free of itch [3]: 4 h
CCOC(=O)[C@@H](O)[C@H](O)C(=O)OCC [D-diethyl tartarate, D-Diethyl tartarate]	10 to 20 min	slight sensual and plumping feelings	one to two	
CCN(CC)CC(=O)Nc1c(C)cccc1C [lidocaine, Lidocaine, reference compound]				duration of the numbing effect (nerves of the lips; [5]): several; numbing effect on the lips (nerves of the lips; [5]): the lips felt numb; time after application until the lips felt numb (nerves of the lips; [5]): a few
O=C(CC(O)(CC(=O)OCc1ccccc1)C(=O)OCc1ccccc1)OCc1ccccc1 [tribenzyl citrate, Tribenzyl citrate]		slight sensual and sensational feelings	a few	
CCOC(=O)CO [ethyl glycolate, Ethyl glycolate, reference compound]		no sensual or sensational feelings during the next 30 minutes		sensuous or mild anesthetic effect [2]: does not produce a sensuous or mild anesthetic effect
COC(=O)CC(O)(CC(=O)OC)C(=O)OC [trimethyl citrate, Trimethyl citrate]		very slight sensual and plumping feelings	one to two	
